Experimental data published in patent US4078049A, “Acetylcholine assay” (Hoffmann-La Roche Inc., priority 1977, dated 1978).

System: antibody in the antiserum of rabbit immunized by the acetylcholine bovine serum albumin immunogen
Assay: Radioimmunoassay specificity: inhibition of binding of acetylcholine-H^3 to the antibody
Method: The volume was adjusted to 0.5 ml with phosphate-buffered saline, pH 7.4, which is the optimal pH for the assay. […]. […] After 2 washings with 50% saturated ammonium sulfate, the precipitate was dissolved in 0.5 ml of water. […] The 12 ml washings were all collected in the vial. The radioactivity was then counted with a Beckman liquid scintillation counter. The dilution of the antiserum chosen for further studies was 1:50.

## CC(=O)O [acetate]
Antiserum incubated with acetate in the presence of labelled acetylcholine
  recognition by the antibody (competition with labelled acetylcholine): failed to recognize

## CC(=O)OCC[N+](C)(C)C [Acetylcholine, acetylcholine]
read-out: concentration producing 50% inhibition of binding of acetylcholine --H^3 to the antibody, antiserum 1:50, incubated 2 hours at 4° C, pH 7.4, eserine present, ammonium sulfate precipitation
  IC50: 0.03 nM
